Consider three molecules from ChEMBL document CHEMBL1909046, “DrugMatrix in vitro pharmacology data”.

Nitric oxide synthase 1, sequence (P29476 whole entry): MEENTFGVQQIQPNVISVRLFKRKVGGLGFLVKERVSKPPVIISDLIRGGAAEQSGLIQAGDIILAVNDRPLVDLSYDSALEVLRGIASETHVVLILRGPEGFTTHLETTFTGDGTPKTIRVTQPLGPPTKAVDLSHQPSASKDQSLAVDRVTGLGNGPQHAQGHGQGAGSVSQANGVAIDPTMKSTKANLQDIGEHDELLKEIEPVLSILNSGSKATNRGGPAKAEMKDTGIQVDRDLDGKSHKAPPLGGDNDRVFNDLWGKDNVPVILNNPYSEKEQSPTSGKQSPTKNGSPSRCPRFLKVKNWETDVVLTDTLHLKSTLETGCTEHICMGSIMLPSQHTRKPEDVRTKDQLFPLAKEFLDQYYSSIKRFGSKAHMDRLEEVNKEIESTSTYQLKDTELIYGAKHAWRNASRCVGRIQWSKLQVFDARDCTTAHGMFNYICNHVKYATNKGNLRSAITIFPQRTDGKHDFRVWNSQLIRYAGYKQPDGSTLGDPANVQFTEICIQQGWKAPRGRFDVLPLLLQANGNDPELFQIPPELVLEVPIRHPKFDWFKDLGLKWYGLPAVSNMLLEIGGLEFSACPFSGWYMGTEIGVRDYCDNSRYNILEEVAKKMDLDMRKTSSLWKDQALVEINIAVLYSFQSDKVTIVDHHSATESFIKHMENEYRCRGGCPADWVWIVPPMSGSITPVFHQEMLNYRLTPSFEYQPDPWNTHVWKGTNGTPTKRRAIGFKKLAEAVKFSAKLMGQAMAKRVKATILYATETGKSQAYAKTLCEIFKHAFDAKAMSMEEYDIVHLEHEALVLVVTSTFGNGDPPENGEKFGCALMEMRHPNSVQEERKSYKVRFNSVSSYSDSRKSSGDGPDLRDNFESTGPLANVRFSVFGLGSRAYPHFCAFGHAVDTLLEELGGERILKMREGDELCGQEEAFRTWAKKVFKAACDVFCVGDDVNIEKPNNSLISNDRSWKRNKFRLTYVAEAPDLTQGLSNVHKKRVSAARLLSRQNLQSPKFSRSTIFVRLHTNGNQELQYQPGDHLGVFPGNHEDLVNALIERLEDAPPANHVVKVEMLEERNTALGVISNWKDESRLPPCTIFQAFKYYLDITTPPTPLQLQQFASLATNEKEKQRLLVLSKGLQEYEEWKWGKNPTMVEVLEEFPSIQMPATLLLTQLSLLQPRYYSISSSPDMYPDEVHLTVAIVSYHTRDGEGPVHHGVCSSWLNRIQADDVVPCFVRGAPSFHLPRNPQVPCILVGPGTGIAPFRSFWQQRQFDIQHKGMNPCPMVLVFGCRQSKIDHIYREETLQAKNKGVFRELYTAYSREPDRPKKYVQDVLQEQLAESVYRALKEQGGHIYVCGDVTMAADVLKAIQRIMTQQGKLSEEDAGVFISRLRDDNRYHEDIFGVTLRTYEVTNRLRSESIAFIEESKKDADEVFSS

System in the first experiment: not listed separately
The experiment can be described thus: DRUGMATRIX: GABAA, Chloride Channel, TBOB radioligand binding (ligand: [3H] TBOB). It is filed as cell membranes, Rattus norvegicus, Wistar, Cerebral cortex, Membrane. As to conditions: Not Active = under 50% inhibition at 10 µM.
By IC50 is commonly meant the concentration needed to halve the response being measured. Usually Ki stands for the equilibrium dissociation constant of an inhibitor or competing ligand from its target. As for `Cc1ccc(C(=O)C(C)CN2CCCCC2)cc1` (configuration not stated) [TOLPERISONE], the concentration for half-maximal inhibition (IC50) entry is given as “Not Active” and the Ki result was “Not Active”.
Turning to IVERMECTIN, the IC50 result was “Not Active” and the inhibition constant Ki entry is reported as “Not Active”.
In the case of `NC(=O)c1ncn([C@@H]2O[C@H](CO)[C@@H](O)[C@H]2O)n1` [RIBAVIRIN], the IC50 result is reported as “Not Active” and the Ki entry is listed as “Not Active”.

The target in the next experiment is Acetylcholinesterase (Homo sapiens, UniProt P22303). The experiment is described as follows: DRUGMATRIX: Acetylcholinesterase enzyme inhibition (substrate: acetylthiocholine). It counts as cell-based, HEK293. As to conditions: hek293; Not Active = under 50% inhibition at 10 µM.
Acetylcholinesterase, sequence (P22303 whole entry): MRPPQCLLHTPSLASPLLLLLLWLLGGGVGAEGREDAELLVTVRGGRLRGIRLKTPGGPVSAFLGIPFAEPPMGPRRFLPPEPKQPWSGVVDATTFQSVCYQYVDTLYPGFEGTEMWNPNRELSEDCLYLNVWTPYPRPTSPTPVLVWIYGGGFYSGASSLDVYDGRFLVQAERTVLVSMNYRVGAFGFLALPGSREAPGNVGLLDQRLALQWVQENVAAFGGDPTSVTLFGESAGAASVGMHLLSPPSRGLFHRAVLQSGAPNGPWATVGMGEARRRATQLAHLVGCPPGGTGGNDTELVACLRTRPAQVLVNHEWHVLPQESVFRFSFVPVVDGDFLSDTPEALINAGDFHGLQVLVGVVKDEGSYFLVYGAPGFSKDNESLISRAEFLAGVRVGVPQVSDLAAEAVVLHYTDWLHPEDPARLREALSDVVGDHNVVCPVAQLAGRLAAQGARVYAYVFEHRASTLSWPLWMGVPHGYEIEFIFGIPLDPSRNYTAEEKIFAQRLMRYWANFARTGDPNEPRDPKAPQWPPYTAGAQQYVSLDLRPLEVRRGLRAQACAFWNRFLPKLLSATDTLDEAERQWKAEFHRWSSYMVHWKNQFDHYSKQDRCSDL
As to `Cc1ccc(C(=O)C(C)CN2CCCCC2)cc1` (configuration not stated) [TOLPERISONE], the IC50 result is “Not Active”.
On to IVERMECTIN, for which the half-inhibitory concentration (IC50) entry is “Not Active” and the Ki result is “Not Active”.
Take `NC(=O)c1ncn([C@@H]2O[C@H](CO)[C@@H](O)[C@H]2O)n1` [RIBAVIRIN]: the IC50 result is on record as “Not Active”.

System in a further experiment: not listed separately
The experiment is described as follows: DRUGMATRIX: Potassium Channel [KATP] radioligand binding (ligand: [3H] Glyburide). The note with it: hit-t15; Not Active = under 50% inhibition at 10 µM. It is filed as cell membranes, Membrane.
Consider `Cc1ccc(C(=O)C(C)CN2CCCCC2)cc1` (configuration not stated) [TOLPERISONE], for which the IC50 result is on record as “Not Active” and the Ki entry is given as “Not Active”.
Turning to IVERMECTIN, the concentration for half-maximal inhibition (IC50) result is “Not Active” and the Ki result was “Not Active”.
As to `NC(=O)c1ncn([C@@H]2O[C@H](CO)[C@@H](O)[C@H]2O)n1` [RIBAVIRIN], the IC50 result is on record as “Not Active” and the Ki result is on record as “Not Active”.

A further experiment has as its target Protein phosphatase 3 catalytic subunit alpha (Homo sapiens, UniProt Q08209). Details: species or system Escherichia coli.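 Further: inhibition of calcineurin (PP2B) enzyme activity, measured with DiFMUP as the substrate; in other assays of this panel Not Active means under 50% inhibition at 10 µM.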
Settings: not given
Take `Cc1ccc(C(=O)C(C)CN2CCCCC2)cc1` (configuration not stated) [TOLPERISONE]: the IC50 result was “Not Active”.
For the molecule IVERMECTIN, the 50% inhibitory concentration (IC50) entry was “Not Active” and the Ki result was “Not Active”.
In the case of `NC(=O)c1ncn([C@@H]2O[C@H](CO)[C@@H](O)[C@H]2O)n1` [RIBAVIRIN], the IC50 result is listed as “Not Active”.

For a further experiment, the target named is Mitogen-activated protein kinase 3 (Homo sapiens, UniProt P27361). The experiment can be described thus: DRUGMATRIX: Protein Serine/Threonine Kinase, ERK1 enzyme inhibition (substrate: Myelin Basic Protein). As to conditions: Not Active = under 50% inhibition at 10 µM. Also noted: species or system Escherichia coli.
Mitogen-activated protein kinase 3, sequence (P27361 whole entry): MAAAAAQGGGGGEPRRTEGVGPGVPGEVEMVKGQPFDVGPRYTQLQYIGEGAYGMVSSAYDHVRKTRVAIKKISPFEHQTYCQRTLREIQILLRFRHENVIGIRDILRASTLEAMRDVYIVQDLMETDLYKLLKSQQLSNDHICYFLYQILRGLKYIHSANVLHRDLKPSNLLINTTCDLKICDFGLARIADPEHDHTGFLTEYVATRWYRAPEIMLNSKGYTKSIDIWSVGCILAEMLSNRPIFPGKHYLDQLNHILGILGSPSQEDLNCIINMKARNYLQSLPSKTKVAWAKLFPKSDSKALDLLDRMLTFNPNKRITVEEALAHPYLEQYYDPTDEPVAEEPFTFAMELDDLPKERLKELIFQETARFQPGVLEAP
Take `Cc1ccc(C(=O)C(C)CN2CCCCC2)cc1` (configuration not stated) [TOLPERISONE]: the IC50 entry is “Not Active”.
Turning to IVERMECTIN, the IC50 entry is listed as “Not Active” and the Ki entry is on record as “Not Active”.
With `NC(=O)c1ncn([C@@H]2O[C@H](CO)[C@@H](O)[C@H]2O)n1` [RIBAVIRIN], the IC50 entry is “Not Active”.

The next experiment deals with T1, B2 bradykinin receptor (Homo sapiens, UniProt P30411).
T1 sequence (P30411 whole entry): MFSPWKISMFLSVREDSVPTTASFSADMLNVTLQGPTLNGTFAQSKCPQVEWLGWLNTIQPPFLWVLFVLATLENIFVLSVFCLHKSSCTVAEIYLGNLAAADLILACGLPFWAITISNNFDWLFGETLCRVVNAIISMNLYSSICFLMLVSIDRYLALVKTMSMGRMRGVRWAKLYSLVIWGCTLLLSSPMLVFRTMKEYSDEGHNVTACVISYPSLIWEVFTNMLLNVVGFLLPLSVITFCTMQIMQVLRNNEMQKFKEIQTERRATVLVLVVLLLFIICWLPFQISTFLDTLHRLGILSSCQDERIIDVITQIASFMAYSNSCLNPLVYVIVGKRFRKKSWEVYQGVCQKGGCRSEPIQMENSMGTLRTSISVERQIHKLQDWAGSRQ
It is filed as cell membranes, Membrane. The note with it: chem-1.
Consider `Cc1ccc(C(=O)C(C)CN2CCCCC2)cc1` (configuration not stated) [TOLPERISONE], for which the IC50 result is reported as “Not Active”.
Regarding IVERMECTIN, the IC50 entry is on record as “Not Active” and the inhibition constant (Ki) entry is “Not Active”.
Take `NC(=O)c1ncn([C@@H]2O[C@H](CO)[C@@H](O)[C@H]2O)n1` [RIBAVIRIN]: the half-inhibitory concentration (IC50) result was “Not Active”.

System in a further experiment: not listed separately
The experiment is described as follows: DRUGMATRIX: Platelet-Derived Growth Factor (PDGF) radioligand binding (ligand: [125I] PDGF). It is filed as cell-based. The note with it: nih3t3; Not Active = under 50% inhibition at 10 µM.
With `Cc1ccc(C(=O)C(C)CN2CCCCC2)cc1` (configuration not stated) [TOLPERISONE], the concentration for half-maximal inhibition (IC50) entry was “Not Active” and the Ki result is “Not Active”.
Consider IVERMECTIN, for which the half-inhibitory concentration (IC50) entry is recorded as “Not Active” and the inhibitory constant (Ki) result is “Not Active”.
As for `NC(=O)c1ncn([C@@H]2O[C@H](CO)[C@@H](O)[C@H]2O)n1` [RIBAVIRIN], the 50% inhibitory concentration (IC50) entry is given as “Not Active” and the inhibition constant (Ki) entry is given as “Not Active”.

The target of a further experiment is T2, Substance-K receptor (Homo sapiens, UniProt P21452). Further: in other assays of this panel Not Active means under 50% inhibition at 10 µM.
T2 sequence (P21452 whole entry): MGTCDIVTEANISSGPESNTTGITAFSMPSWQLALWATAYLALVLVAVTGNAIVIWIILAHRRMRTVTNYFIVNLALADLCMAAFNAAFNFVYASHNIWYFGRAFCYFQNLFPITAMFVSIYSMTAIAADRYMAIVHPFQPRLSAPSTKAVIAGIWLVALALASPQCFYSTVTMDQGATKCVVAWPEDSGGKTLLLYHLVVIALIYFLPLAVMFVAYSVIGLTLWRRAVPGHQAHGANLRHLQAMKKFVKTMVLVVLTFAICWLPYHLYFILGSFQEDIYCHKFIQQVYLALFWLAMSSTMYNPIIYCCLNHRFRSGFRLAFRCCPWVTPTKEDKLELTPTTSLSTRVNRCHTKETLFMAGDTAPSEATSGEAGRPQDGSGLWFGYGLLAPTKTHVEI
It counts as cell membranes, CHO, Membrane. The note with it: cho.
For `Cc1ccc(C(=O)C(C)CN2CCCCC2)cc1` (configuration not stated) [TOLPERISONE], the IC50 entry was “Not Active”.
IVERMECTIN: the half-maximal inhibitory concentration (IC50) entry is reported as “Not Active” and the Ki entry is listed as “Not Active”.
In the case of `NC(=O)c1ncn([C@@H]2O[C@H](CO)[C@@H](O)[C@H]2O)n1` [RIBAVIRIN], the half-inhibitory concentration (IC50) entry is on record as “Not Active”.

The next experiment concerns the target T3, Alpha-2C adrenergic receptor (Homo sapiens, UniProt P18825).
T3 sequence (P18825 whole entry): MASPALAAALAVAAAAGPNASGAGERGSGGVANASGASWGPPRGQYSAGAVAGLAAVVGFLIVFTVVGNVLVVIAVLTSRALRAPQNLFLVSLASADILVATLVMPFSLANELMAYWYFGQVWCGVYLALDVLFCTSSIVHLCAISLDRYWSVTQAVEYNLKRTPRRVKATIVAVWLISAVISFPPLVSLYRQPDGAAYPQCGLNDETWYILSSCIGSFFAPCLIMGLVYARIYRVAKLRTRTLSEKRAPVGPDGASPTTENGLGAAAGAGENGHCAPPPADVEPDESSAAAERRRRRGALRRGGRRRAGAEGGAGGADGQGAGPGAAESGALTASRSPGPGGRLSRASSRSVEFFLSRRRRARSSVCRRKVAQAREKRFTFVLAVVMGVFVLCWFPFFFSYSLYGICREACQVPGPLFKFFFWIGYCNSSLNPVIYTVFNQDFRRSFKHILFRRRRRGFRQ
The experiment is described as follows: DRUGMATRIX: Adrenergic Alpha-2C radioligand binding (ligand: [3H] MK-912). It is filed as cell membranes, Sf9, Membrane. As to conditions: sf9.
As for `Cc1ccc(C(=O)C(C)CN2CCCCC2)cc1` (configuration not stated) [TOLPERISONE], the IC50 result is “Not Active”.
Same read-out and setting: the value for `NC(=O)c1ncn([C@@H]2O[C@H](CO)[C@@H](O)[C@H]2O)n1` [RIBAVIRIN] was “Not Active”.

The same experiment, now with this note: sf9; read-out: IC50.
As to IVERMECTIN, the IC50 came to 3.92 µM.

The same experiment, now with this note: sf9; read-out: Ki.
On to IVERMECTIN, for which the Ki was determined as 0.57 µM.

A further experiment concerns the target Nitric oxide synthase 1 (Rattus norvegicus, UniProt P29476). It is filed as tissue-based, Cerebellum. Further: in other assays of this panel Not Active means under 50% inhibition at 10 µM.
Settings: not given
Take `Cc1ccc(C(=O)C(C)CN2CCCCC2)cc1` (configuration not stated) [TOLPERISONE]: the IC50 entry is on record as “Not Active”.
With IVERMECTIN, the IC50 result is “Not Active” and the inhibition constant (Ki) result is reported as “Not Active”.
As for `NC(=O)c1ncn([C@@H]2O[C@H](CO)[C@@H](O)[C@H]2O)n1` [RIBAVIRIN], the half-inhibitory concentration (IC50) entry is recorded as “Not Active”.

The target in the next experiment is Adenosine receptor A2a (Homo sapiens, UniProt P29274). The experiment can be described thus: DRUGMATRIX: Adenosine A2A radioligand binding (ligand: […]). As to conditions: hek293; Not Active = under 50% inhibition at 10 µM. It counts as cell membranes, HEK293, Membrane.
Adenosine receptor A2a, sequence (P29274 whole entry): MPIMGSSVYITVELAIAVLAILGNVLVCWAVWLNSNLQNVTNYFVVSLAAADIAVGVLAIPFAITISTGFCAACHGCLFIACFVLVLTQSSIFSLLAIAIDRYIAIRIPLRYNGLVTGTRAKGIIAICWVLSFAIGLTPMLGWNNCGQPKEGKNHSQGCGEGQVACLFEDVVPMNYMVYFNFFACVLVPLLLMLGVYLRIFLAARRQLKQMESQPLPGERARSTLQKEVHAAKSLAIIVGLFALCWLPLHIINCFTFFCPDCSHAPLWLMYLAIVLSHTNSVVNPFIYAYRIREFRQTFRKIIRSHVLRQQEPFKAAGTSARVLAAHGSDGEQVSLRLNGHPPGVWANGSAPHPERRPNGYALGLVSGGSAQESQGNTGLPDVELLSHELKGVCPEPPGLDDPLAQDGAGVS
For `Cc1ccc(C(=O)C(C)CN2CCCCC2)cc1` (configuration not stated) [TOLPERISONE], the half-maximal inhibitory concentration (IC50) result is on record as “Not Active”.
Turning to IVERMECTIN, the IC50 entry is on record as “Not Active” and the inhibitory constant (Ki) result is reported as “Not Active”.
Consider `NC(=O)c1ncn([C@@H]2O[C@H](CO)[C@@H](O)[C@H]2O)n1` [RIBAVIRIN], for which the half-inhibitory concentration (IC50) entry is “Not Active”.

The target of the next experiment is cGMP-specific 3',5'-cyclic phosphodiesterase (Homo sapiens, UniProt O76074). The experiment can be described thus: DRUGMATRIX: Phosphodiesterase PDE5 enzyme inhibition (substrate: [3H]cGMP + cGMP). It counts as tissue-based, Platelet. The note with it: platelet; Not Active = under 50% inhibition at 10 µM.
With `Cc1ccc(C(=O)C(C)CN2CCCCC2)cc1` (configuration not stated) [TOLPERISONE], the IC50 result is “Not Active”.
As for IVERMECTIN, the IC50 result is recorded as “Not Active” and the inhibition constant Ki result was “Not Active”.
Regarding `NC(=O)c1ncn([C@@H]2O[C@H](CO)[C@@H](O)[C@H]2O)n1` [RIBAVIRIN], the concentration for half-maximal inhibition (IC50) entry is “Not Active”.

In the next experiment the target is Cannabinoid receptor 1 (Homo sapiens, UniProt P21554). It counts as cell membranes, Membrane. As to conditions: chem-1. Further: in other assays of this panel Not Active means under 50% inhibition at 10 µM.
Cannabinoid receptor 1, sequence (P21554 whole entry): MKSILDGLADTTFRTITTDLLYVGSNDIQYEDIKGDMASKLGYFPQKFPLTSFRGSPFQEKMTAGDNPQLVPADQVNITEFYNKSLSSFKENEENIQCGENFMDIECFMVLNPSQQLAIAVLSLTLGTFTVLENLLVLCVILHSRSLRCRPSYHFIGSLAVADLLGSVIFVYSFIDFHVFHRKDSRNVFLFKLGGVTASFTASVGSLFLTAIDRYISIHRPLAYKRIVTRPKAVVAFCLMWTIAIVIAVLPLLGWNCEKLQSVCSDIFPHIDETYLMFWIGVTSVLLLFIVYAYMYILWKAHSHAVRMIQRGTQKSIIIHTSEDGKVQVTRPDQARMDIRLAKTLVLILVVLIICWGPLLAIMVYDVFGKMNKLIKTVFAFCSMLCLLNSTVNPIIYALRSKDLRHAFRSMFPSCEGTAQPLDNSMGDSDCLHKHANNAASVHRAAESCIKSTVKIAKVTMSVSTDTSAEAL
`Cc1ccc(C(=O)C(C)CN2CCCCC2)cc1` (configuration not stated) [TOLPERISONE]: the concentration for half-maximal inhibition (IC50) result is “Not Active”.
Consider IVERMECTIN, for which the half-inhibitory concentration (IC50) entry is reported as “Not Active” and the inhibition constant (Ki) entry was “Not Active”.
For the molecule `NC(=O)c1ncn([C@@H]2O[C@H](CO)[C@@H](O)[C@H]2O)n1` [RIBAVIRIN], the half-maximal inhibitory concentration (IC50) entry was “Not Active”.

For a further experiment, the target named is T4, C-X-C chemokine receptor type 1 (Homo sapiens, UniProt P25024). Further: in other assays of this panel Not Active means under 50% inhibition at 10 µM.
T4 sequence (P25024 whole entry): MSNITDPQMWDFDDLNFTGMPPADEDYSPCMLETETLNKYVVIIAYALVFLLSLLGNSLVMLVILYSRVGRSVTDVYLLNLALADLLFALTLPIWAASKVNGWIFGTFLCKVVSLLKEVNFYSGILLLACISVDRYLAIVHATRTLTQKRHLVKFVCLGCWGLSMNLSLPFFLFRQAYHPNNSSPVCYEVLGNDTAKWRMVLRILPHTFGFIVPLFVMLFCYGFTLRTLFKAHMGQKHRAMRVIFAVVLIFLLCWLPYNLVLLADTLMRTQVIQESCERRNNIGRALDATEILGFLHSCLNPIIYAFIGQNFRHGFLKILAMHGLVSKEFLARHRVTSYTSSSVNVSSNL
Settings: not given
In the case of `Cc1ccc(C(=O)C(C)CN2CCCCC2)cc1` (configuration not stated) [TOLPERISONE], the 50% inhibitory concentration (IC50) result was “Not Active”.
In the case of IVERMECTIN, the half-maximal inhibitory concentration (IC50) entry is given as “Not Active” and the Ki entry is “Not Active”.
For `NC(=O)c1ncn([C@@H]2O[C@H](CO)[C@@H](O)[C@H]2O)n1` [RIBAVIRIN], the IC50 entry is on record as “Not Active”.
